Experimental data reported in ChEMBL document CHEMBL4699565, “Computational modeling and target synthesis of monomethoxy-substituted o-diphenylisoxazoles with unexpectedly high antimitotic microtubule destabilizing activity” (Bioorg Med Chem Lett, 2020).

Tests used:
Paracentrotus lividus [1] = assay: Antimitotic activity against sea urchin embryo assessed as embryo spinning measured 2.5 to 6 hrs post-fertilization observed after 15 min to 20 hrs of treatment by light microscopy analysis; type: functional; conditions: time hrs 0.25-20
Paracentrotus lividus [2] = assay: Antimitotic activity against sea urchin embryo assessed as cleavage arrest measured 2.5 to 6 hrs post-fertilization by light microscopy analysis; type: functional; conditions: time hrs 2.5-6
Paracentrotus lividus [3] = assay: Antimitotic activity against sea urchin embryo assessed as cleavage alteration measured 2.5 to 6 hrs post-fertilization by light microscopy analysis; type: functional
Tubulin (Homo sapiens) = Tubulin (Homo sapiens) (UniProt P68371+Q9H4B7+P0DPH7+P68366+Q13509+Q71U36+P04350+Q3ZCM7+P07437+P68363+Q9BQE3+Q6PEY2+Q13885+Q9BVA1+Q9BUF5); assay: Binding affinity to tubulin (unknown origin) assessed as change in gibbs free energy; type: protein-complex assay
K562 = assay: Cytotoxicity against human K562 cells; type: functional, cell-based
Paracentrotus lividus [4] = assay: Antimitotic activity against sea urchin embryo assessed as cleavage arrest by phase microscopy analysis; type: functional
[5] = tested on: Panel NCI-60 (60 carcinoma cell lines); assay: Cytotoxicity against human NCI60 cells; type: functional
MDA-MB-435 = assay: Cytotoxicity against human MDA MB 435 cells; type: functional

Structure (SMILES)	EC (Paracentrotus lividus [1]) [µM]	EC (Paracentrotus lividus [2]) [µM]	EC (Paracentrotus lividus [3]) [µM]	deltaG (Tubulin (Homo sapiens)) [kcal/mol]	IC50 (K562) [nM]	EC (Paracentrotus lividus [4]) [µM]	GI50 [5] [nM]	GI50 (MDA-MB-435) [nM]
COc1cc2c(c(OC)c1OC)-c1ccc(OC)c(=O)cc1[C@@H](NC(C)=O)CC2 [COLCHICINE]	0.05	0.1	0.05					
COc1ccc(-c2nocc2-c2ccccc2)cc1	2	2	0.2	-9.15				
COc1cc([C@@H]2c3cc4c(cc3[C@H](O)[C@H]3COC(=O)[C@H]23)OCO4)cc(OC)c1OC [PODOFILOX]	0.5	0.05	0.02					
COc1ccc(/C=C\c2cc(OC)c(OC)c(OC)c2)cc1O [COMBRETASTATIN A4]	0.05	0.01	0.002	-11.9	1			
COc1cc2c(c(OC)c1OC)-c1cc3c(cc1[C@H](OC(C)=O)[C@H]1COC(=O)[C@@H]1C2)OCO3 [(-)-STEGANACIN]						0.3		
COc1ccc(-c2conc2-c2ccccc2)cc1	0.1	0.05	0.005	-11.3	47		457	26
COc1cc(-c2cc(-c3cccc(O)c3)cnc2N)cc(OC)c1OC	1	1	0.1					
COc1ccc(-c2cnoc2-c2ccccc2)cc1	0.1	0.02	0.002	-11.9				
COc1ccc(-c2oncc2-c2ccccc2)cc1	>5	2	0.2	-9.15				
COc1ccc(-c2nocc2-c2cc(OC)c(OC)c(OC)c2)cc1				-10.9				
